Results as given in patent US4284786A, “5-Methylisoxazole-4-carboxylic-(4-trifluoromethyl)-anilide” (priority 1978, dated 1981).
Like-named read-outs stand apart in the source and are kept apart here.

Experiments:
in vivo [1] = test: in vivo; parameters: species or system male Sprague-Dawley rats; details: rat, in vivo; for selectivity ratio: acute UD50 / ED50, read-out: Therapeutic index acute UD50/ED50
Experimental: (§1) The investigations were carried out in groups of 10 male Sprague-Dawley rats having a body weight of 200-300 g. 48 hours before administration of the compounds to be compared, and up to the time of killing the animals, food was withheld, but there was free access to drinking water. The rats were killed 24 hours after oral administration, and the stomach was removed under running water and inspected for lesions of the mucous membrane. All macroscopically visible lesions were rated as ulcers.

stomach mucous membrane [2] = test: Sub-acute ulcerogenic action; format: in vivo, male Sprague-Dawley rats; details: sub-acute, relative to compound B
Experimental: as §1, with “ulcers. The proportion of animals with ulcers at each dose was determined, as was the UD50 using the method of Litchfield and Wilcoxon (J.Pharmacol.exp.Ther. 96, 99 (1949)).” for “ulcers.”
(§2) The experimental animals and the experimental method were as under 4, with the following modification: the compounds to be compared were administered orally once daily for 4 days to normally fed rats and the animals were killed on the 5th day, after food had been withheld for 24 hours. According to Shriver, this method gives more informative results than a single administration, since medicamentous therapy of rheumatic patients also requires repeated treatment (Toxicology and Appl. Pharmacology 32, 73 (1975)).

[3] = Sub-acute ulcerogenic action; format: in vivo, male Sprague-Dawley rats; details: rat, in vivo, po; sub-acute UD50 / ED50; read-out: Therapeutic index sub-acute UD50/ED50
Experimental: as §1, with “ulcers. The proportion of animals with ulcers at each dose was determined, as was the UD50 using the method of Litchfield and Wilcoxon (J.Pharmacol.exp.Ther. 96, 99 (1949)).” for “ulcers.”
as §2

[4] = system: allergic encephalomyelitis; test: Allergic encephalomyelitis (Levine); format: in vivo, male rats, Wistar-Lewis strain; details: for Allergic encephalomyelitis (3) % inhibition: days 1-12, index on 11th day
Experimental: Known non-steroid antiphlogistic agents are here at most very slightly active.
The investigations were carried out by the method of Levine (Arch.int.Pharmacodyn. 230, 309 (1977)). The experimental animals used were male rats of a Wistar-Lewis strain having a body weight of between 180 and 220 g. The encephalomyelitis was induced by injection of complete Freund adjuvant to which freshly withdrawn homogenized rat spinal marrow extract and Bordetella pertussis vaccine had been added. The compounds to be compared were administered orally once a day from the 1st to the 12th day. For each dose, and for the control group, a group of 10 animals was used. From the 7th day of the experiment, the paralysis symptoms were grouped together daily in one index with the mortality and the change of body weight. […]
loss of 20 g of body weight in each case: 1 point […]
hindquarters paralysis: 3 points paralysis of the entire body: 5 points
The assessment criterion was the percentage inhibition of the index compared to untreated control animals on the 11th day of the experiment. On conclusion of the experiment, blood was taken from the surviving animals to determine the erythrocyte count and leucocyte count as well as the hematocrit.

[5] = Acute toxicity, intraperitoneal administration to mice; parameters: species or system NMRI mice; details: mouse, in vivo, ip
Source text: (§3) 6 animals were used per dose.

adjuvant arthritis [6] = test: Adjuvant arthritis, Perper modification; format: in vivo, male rats, Wistar-Lewis strain; details: for ED50: Rattus norvegicus, 504 h, oral, days 1-12, paw volume on 21st day, read-out: Adjuvant arthritis Perper (2) ED50; for Adjuvant arthritis Perper (2) ED50: result in words
Experimental: (§4) The investigations were carried out by the method of Pearson (Arthrit.Rheum. 2, 440 (1959)). The experimental animals used were male rats of a Wistar-Lewis strain, having a body weight of between 130 and 200 g. The compounds to be compared were administered orally, daily from the 1st to the 17th day of the experiment. Animals of the control group were given the solvent only. For each dosage, and in the control group, a group of 8 animals was used. The criterion of the activity was the reduction in the paw volume increase compared to the untreated control group. The ED50 values were determined graphically from the dose/effect curve.
The experimental animals and experimental methods were as under 1., but the animals were only treated from the 1st to the 12th day of the experiment; after a treatment-free interval of 9 days, the paw volume was determined on the 21st day.

rats = test: in vivo; details: oral toxicity, relative to compound B
Experimental: (§5) The acute toxicity were determined by standard methods on NMRI mice and on rats of the Wister and Sprague-Dawley strains. 6 animals were used per dose. The LD50 values were determined by the method of Litchfield and Wilcoxon.

in vivo [7] = details: rat, in vivo, po
Experimental: as §5

adjuvant arthritis [8] = test: Adjuvant arthritis, preventive experiment (Pearson); format: in vivo, male rats, Wistar-Lewis strain; details: for ED50: Rattus norvegicus, oral, daily days 1-17, reduction in paw volume increase
Experimental: as §4

stomach mucous membrane [9] = test: in vivo; parameters: species or system male Sprague-Dawley rats; details: single oral dose, fasted rats, 24 hours
Experimental: as §1

[10] = Acute toxicity, oral administration, mice; details: mouse, in vivo; for selectivity ratio: oral LD50 in mice / ED50, read-out: Therapeutic index LD50/ED50
Source text: as §3

[11] = in the therapeutic dosage range

Compound	TD50 at 24 h (in vivo [1]; po)	selectivity ratio (in vivo [1]; po)	selectivity ratio [3]	Allergic encephalomyelitis (3) % inhibition ([4]; dose 10 mg/kg oral)	LD50 [5]	ED50 (adjuvant arthritis [6])	LD50 (in vivo [7])	selectivity ratio (in vivo [7])	ED50 (adjuvant arthritis [8])	Adjuvant arthritis Perper (2) ED50 (adjuvant arthritis [6]; up to 20.0 (mg/kg))	selectivity ratio [10]	other results
Cc1oncc1C(=O)Nc1ccc(C(F)(F)F)cc1 [compound A, 5-Methylisoxazole-4-carboxylic acid 4-trifluoromethyl-anilide]	57 mg/kg	25	33	100%	150 to 300 mg/kg	4.5 mg/kg	235 mg/kg	100	2.3 mg/kg			therapeutic index (UD50/ED50; sub-acute) times greater than that of compound B (stomach mucous membrane [2]): 4.1 times; inhibition of immunopathological processes, allergic encephalomyelitis test [4, 11]: inhibits immunopathological processes; 100% inhibition of the paralysis symptoms in allergic encephalomyelitis without gastro-intestinal bleeding ([4]; rat, in vivo): possible; inhibition of immunopathological processes, Perper adjuvant arthritis test (adjuvant arthritis [6]; [11]): inhibits immunopathological processes; therapeutic range (LD50/ED50) times greater than that of compound B (rats): 2.4 times; activity times greater than that of compound B (adjuvant arthritis [8]; ED50, adjuvant arthritis, preventive, relative to compound B): 6.5 times
Cc1oncc1C(=O)Nc1ccc(F)cc1 [compound B, 5-methylisoxazole-4-carboxylic acid 4-fluoroanilide]		17	8		200 to 400 mg/kg	25 mg/kg	620 mg/kg	41	15 mg/kg			Ulcerogenic character acute UD50 (stomach mucous membrane [9]): 250 mg/kg; Allergic encephalomyelitis (3) % inhibition ([4]; dose 25 mg/kg oral): 43%; Allergic encephalomyelitis (3): finding printed in the % inhibition column ([4]; dose 50 mg/kg oral): anaemia
Cc1oncc1C(=O)Nc1cccc(C(F)(F)F)c1 [compound C, 5-methylixoazole-4-carboxylic acid 3-trifluoromethylanilide]	~600 mg/kg	< 12		0%	100 to 250 mg/kg				> 50 mg/kg	inactive	< 15	LD50 ([10]; po): 740 mg/kg
Cc1oncc1C(=O)Nc1cc(C(F)(F)F)cc(C(F)(F)F)c1 [compound D, 5-methylisoxazole-4-carboxylic acid 3,5-bis-trifluoromethylanilide]		~2			> 500 mg/kg	> 50 mg/kg			~50 mg/kg		50	TD50 at 24 h (in vivo [1]; single oral dose, fasted rats, 24 hours, read-out: Ulcerogenic character acute UD50): 100 mg/kg
Cc1oncc1C(=O)Nc1ccccc1C(F)(F)F [compound E, 5-methylisoxazole-4-carboxylic acid 2-trifluoromethylanilide]	350 mg/kg	< 7		0%	300 to 6000 mg/kg				> 50 mg/kg	inactive		
CCCCC1C(=O)N(c2ccccc2)N(c2ccccc2)C1=O [compound F, phenylbutazone]									37 mg/kg			Allergic encephalomyelitis (3) % inhibition ([4]; dose 75 mg/kg oral): 0%; Adjuvant arthritis Perper (2) ED50 (adjuvant arthritis [6]; up to 75 (mg/kg)): inactive
